The values that follow come from ChEMBL document CHEMBL3351412, “Design, synthesis and biological evaluation of β-boswellic acid based HDAC inhibitors as inducers of cancer cell death” (Bioorg Med Chem Lett, 2014).

The nature of experiment [1]: Cytotoxicity against human MIAPaCa2 cells. The class given is functional, cell-based. To be noted: MIA PaCa-2.
A short description of experiment [2]: Cytotoxicity against human HCT116 cells. The class given is functional, cell-based. The settings on record: HCT-116.
For the next experiment, the system named is MCF7. As to the kind of experiment: Cytotoxicity against human MCF7 cells. The class given is functional, cell-based.
In a further experiment the target is Histone deacetylase. As to the kind of experiment: Inhibition of HDAC (unknown origin). Format: protein assay, Homo sapiens.
Experiment [3] can be described thus: Cytotoxicity against human FR2 cells. The class given is cell-based.
The target of experiment [4] is T1, Histone deacetylase (Homo sapiens) (UniProt Q13547+O15379+Q9UBN7+Q92769+Q9UQL6+Q8WUI4+Q9BY41+Q96DB2+P56524+Q9UKV0+Q969S8). As to the kind of experiment: Inhibition of HDAC (unknown origin) at 30 uM. The class given is protein assay.
Another experiment has as its system A549. As to the kind of experiment: Cytotoxicity against human A549 cells. The class given is functional, cell-based.
Experiment [5] in a line: Cytotoxicity against human HL60 cells. Format: functional, cell-based. The settings on record: HL-60.
For experiment [6], the target named is T1, Histone deacetylase (Homo sapiens). As to the kind of experiment: Inhibition of HDAC (unknown origin) at 50 uM. The class given is protein assay.

In the case of `C[C@H]1[C@H](C)CC[C@]2(C)CC[C@]3(C)C(=CC(=O)[C@@H]4[C@@]5(C)CC[C@@H](O)[C@](C)(NC(=O)CCCCC(=O)NO)[C@@H]5CC[C@]43C)[C@H]12`, the IC50 (as a rule, the concentration at which inhibition is half-maximal) in experiment [1] was 13.1 µM; in [2], over 20 µM; in the experiment on MCF7 it was over 20 µM; on Histone deacetylase it was 42 µM; in experiment [3] it was 7.2 µM; in the experiment with A549, 3.1 µM. Moreover, in [5], the IC50 was 6.6 µM. In addition, the results for the inhibition in experiment [4] and in experiment [6] were 37% and 57%, respectively.

Consider `C[C@H]1[C@H](C)CC[C@]2(C)CC[C@]3(C)C(=CC[C@@H]4[C@@]5(C)CC[C@@H](O)[C@](C)(NC(=O)CCCC(=O)O)[C@@H]5CC[C@]43C)[C@H]12`, for which the 50% inhibitory concentration (IC50) in experiment [1] is 11 µM; in experiment [2] it was over 20 µM; with MCF7 it was 14.3 µM; in experiment [3], over 20 µM; in the experiment on A549 it was over 20 µM; in [5], 13.4 µM.

For `COC(=O)CCCCC(=O)N[C@]1(C)[C@@H]2CC[C@]3(C)[C@H](C(=O)C=C4[C@@H]5[C@@H](C)[C@H](C)CC[C@]5(C)CC[C@]43C)[C@@]2(C)CC[C@H]1OC(C)=O`, the IC50 was 15.1 µM in experiment [1]; 15.1 µM in [2]; 15.1 µM in the experiment with MCF7; over 20 µM in experiment [3]; 15.1 µM with A549; over 20 µM in experiment [5].

Take `COC(=O)CCCCCCCC(=O)N[C@]1(C)[C@@H]2CC[C@]3(C)[C@H](C(=O)C=C4[C@@H]5[C@@H](C)[C@H](C)CC[C@]5(C)CC[C@]43C)[C@@]2(C)CC[C@H]1OC(C)=O`: the IC50 in [1] was 6.1 µM; in experiment [2] it was 18 µM; with MCF7, 2 µM; in [3], 17.2 µM; in the experiment with A549, 10 µM; in experiment [5] it was 10 µM.

In the case of `C[C@H]1[C@H](C)CC[C@]2(C)CC[C@]3(C)C(=CC[C@@H]4[C@@]5(C)CC[C@@H](O)[C@](C)(NC(=O)CCCC(=O)NO)[C@@H]5CC[C@]43C)[C@H]12`, the IC50 in experiment [1] is 8.8 µM; in experiment [2] it was over 20 µM; in the experiment with MCF7, 3.6 µM; against Histone deacetylase, 34 µM; in experiment [3], over 20 µM; with A549 it was over 20 µM. In experiment [5], this compound gave an IC50 of 11.7 µM. For the same compound, the inhibition – broadly, the share of the control response that was lost under treatment – in [4] came out at 46%; in experiment [6], 54%.

Turning to `COC(=O)CCCCCCC(=O)N[C@]1(C)[C@@H]2CC[C@]3(C)[C@H](CC=C4[C@@H]5[C@@H](C)[C@H](C)CC[C@]5(C)CC[C@]43C)[C@@]2(C)CC[C@H]1OC(C)=O`, the 50% inhibitory concentration (IC50) (in experiment [1]; in experiment [2]; with MCF7; in experiment [3]; in the experiment on A549; in experiment [5]) was over 20 µM throughout.

`COC(=O)CCCCCCCC(=O)N[C@]1(C)[C@@H]2CC[C@]3(C)[C@H](CC=C4[C@@H]5[C@@H](C)[C@H](C)CC[C@]5(C)CC[C@]43C)[C@@]2(C)CC[C@H]1OC(C)=O`: the IC50 was over 20 µM in experiment [1]; over 20 µM in experiment [2]; 17 µM in the experiment on MCF7; over 20 µM in experiment [3]; over 20 µM with A549; over 20 µM in experiment [5].

Consider `C[C@H]1[C@H](C)CC[C@]2(C)CC[C@]3(C)C(=CC[C@@H]4[C@@]5(C)CC[C@@H](O)[C@](C)(NC(=O)CCCCCCCC(=O)NO)[C@@H]5CC[C@]43C)[C@H]12`, for which the half-inhibitory concentration (IC50) in experiment [1] was 11.9 µM; in experiment [2] it was 11.8 µM; with MCF7, 6.4 µM; on Histone deacetylase, over 50 µM; in experiment [3], over 20 µM; in the experiment with A549, 15 µM. Also, half-maximal inhibition in [5] (IC50) required 12.4 µM. The inhibition in experiment [4] stood at 34%; in experiment [6], 45%.

Take `COC(=O)CCCCC(=O)N[C@]1(C)[C@@H]2CC[C@]3(C)[C@H](CC=C4[C@@H]5[C@@H](C)[C@H](C)CC[C@]5(C)CC[C@]43C)[C@@]2(C)CC[C@H]1OC(C)=O`: the half-maximal inhibitory concentration (IC50) in experiment [1] is over 20 µM; in experiment [2] it was over 20 µM; with MCF7 it was 13.8 µM; in experiment [3] it was over 20 µM; in the experiment with A549, over 20 µM; in experiment [5], over 20 µM.

On to `C[C@H]1[C@H](C)CC[C@]2(C)CC[C@]3(C)C(=CC[C@@H]4[C@@]5(C)CC[C@@H](O)[C@](C)(NC(=O)CCCCCCC(=O)O)[C@@H]5CC[C@]43C)[C@H]12`, for which the IC50 (in [1]; in experiment [2]; in the experiment on MCF7; in experiment [3]; in the experiment on A549; in experiment [5]) was over 20 µM throughout.

For the compound `C[C@H]1[C@H](C)CC[C@]2(C)CC[C@]3(C)C(=CC[C@@H]4[C@@]5(C)CC[C@@H](O)[C@](C)(NC(=O)CCCCC(=O)O)[C@@H]5CC[C@]43C)[C@H]12`, the IC50 (in experiment [1]; in experiment [2]; in the experiment with MCF7; in experiment [3]; in the experiment with A549; in experiment [5]) was over 20 µM each time.

`COC(=O)CCCCCCC(=O)N[C@]1(C)[C@@H]2CC[C@]3(C)[C@H](C(=O)C=C4[C@@H]5[C@@H](C)[C@H](C)CC[C@]5(C)CC[C@]43C)[C@@]2(C)CC[C@H]1OC(C)=O`: the IC50 in [1] was 8 µM; in experiment [2] it was 15.7 µM; with MCF7 it was under 0.25 µM; in experiment [3] it was over 20 µM; in the experiment on A549 it was 2 µM; in [5], over 20 µM.

Turning to `C[C@H]1[C@H](C)CC[C@]2(C)CC[C@]3(C)C(=CC[C@@H]4[C@@]5(C)CC[C@@H](O)[C@](C)(NC(=O)CCCCCCCC(=O)O)[C@@H]5CC[C@]43C)[C@H]12`, the IC50 in experiment [1] was 15.9 µM; in experiment [2], over 20 µM; with MCF7, 16.5 µM; in experiment [3], over 20 µM; in the experiment with A549 it was over 20 µM; in [5] it was over 20 µM.

For `C[C@H]1[C@H](C)CC[C@]2(C)CC[C@]3(C)C(=CC(=O)[C@@H]4[C@@]5(C)CC[C@@H](O)[C@](C)(NC(=O)CCCCC(=O)O)[C@@H]5CC[C@]43C)[C@H]12`, the concentration for half-maximal inhibition (IC50) in experiment [1] was 14.1 µM; in experiment [2], over 20 µM; with MCF7, 18 µM; in [3] it was over 20 µM; with A549, 19.1 µM; in experiment [5], over 20 µM.

With `CC(=O)O[C@@H]1CC[C@]2(C)[C@H]3C(=O)C=C4[C@@H]5[C@@H](C)[C@H](C)CC[C@]5(C)CC[C@@]4(C)[C@]3(C)CC[C@H]2[C@@]1(C)N`, the IC50 amounted to 15.1 µM in experiment [1]; 15.3 µM in experiment [2]; 14 µM in the experiment on MCF7; 7.1 µM in experiment [3]; 6 µM with A549; 6.1 µM in [5].

As to `C[C@H]1[C@H](C)CC[C@]2(C)CC[C@]3(C)C(=CC(=O)[C@@H]4[C@@]5(C)CC[C@@H](O)[C@](C)(NC(=O)CCCCCCC(=O)O)[C@@H]5CC[C@]43C)[C@H]12`, the half-maximal inhibitory concentration (IC50) is 8.6 µM in experiment [1]; over 20 µM in experiment [2]; over 20 µM in the experiment with MCF7; over 20 µM in experiment [3]; 2.9 µM in the experiment on A549; over 20 µM in experiment [5].

With `C[C@H]1[C@H](C)CC[C@]2(C)CC[C@]3(C)C(=CC[C@@H]4[C@@]5(C)CC[C@@H](O)[C@](C)(NC(=O)CCCCC(=O)NO)[C@@H]5CC[C@]43C)[C@H]12`, the 50% inhibitory concentration (IC50) was 11.8 µM in experiment [1]; over 20 µM in [2]; 4.4 µM in the experiment with MCF7; over 20 µM in experiment [3]; over 20 µM with A549; over 20 µM in [5].

For `COC(=O)CCCC(=O)N[C@@]1(C)[C@H](OC(C)=O)CC[C@]2(C)C3CC=C4[C@@H]5[C@@H](C)[C@H](C)CC[C@]5(C)CC[C@@]4(C)[C@]3(C)CC[C@@H]12` (single isomer, unassigned), the IC50 in experiment [1] was 11.4 µM; in experiment [2], 19 µM; in the experiment on MCF7, 8.7 µM; in experiment [3], over 20 µM; with A549, over 20 µM; in experiment [5], 17.1 µM.

Regarding `C[C@H]1[C@H](C)CC[C@]2(C)CC[C@]3(C)C(=CC(=O)[C@@H]4[C@@]5(C)CC[C@@H](O)[C@](C)(NC(=O)CCCCCCCC(=O)O)[C@@H]5CC[C@]43C)[C@H]12`, the IC50 is over 20 µM in [1]; over 20 µM in experiment [2]; 15.1 µM with MCF7; 16.6 µM in experiment [3]; over 20 µM in the experiment on A549; 7.5 µM in experiment [5].

In the case of `C[C@H]1[C@H](C)CC[C@]2(C)CC[C@]3(C)C(=CC(=O)[C@@H]4[C@@]5(C)CC[C@@H](O)[C@](C)(NC(=O)CCCC(=O)O)[C@@H]5CC[C@]43C)[C@H]12`, the 50% inhibitory concentration (IC50) in experiment [1] was 6 µM; in experiment [2], 7.1 µM; in the experiment with MCF7 it was 11.1 µM; in experiment [3] it was over 20 µM; with A549, 6.6 µM; in experiment [5], over 20 µM.

For `COC(=O)CCCC(=O)N[C@]1(C)[C@@H]2CC[C@]3(C)[C@H](C(=O)C=C4[C@@H]5[C@@H](C)[C@H](C)CC[C@]5(C)CC[C@]43C)[C@@]2(C)CC[C@H]1OC(C)=O`, the IC50 in experiment [1] is over 20 µM; in [2], over 20 µM; in the experiment with MCF7, over 20 µM; in [3] it was over 20 µM; in the experiment with A549, 7.4 µM; in [5], 17.6 µM.

Turning to `CC(=O)O[C@@H]1CC[C@]2(C)[C@H]3CC=C4[C@@H]5[C@@H](C)[C@H](C)CC[C@]5(C)CC[C@@]4(C)[C@]3(C)CC[C@H]2[C@@]1(C)N`, the IC50 turned out to be 7.2 µM in experiment [1]; 8.7 µM in experiment [2]; 6.9 µM in the experiment on MCF7; 13.9 µM in experiment [3]; 13.2 µM with A549; 10 µM in experiment [5].
